Source: patent US12612397B2, “Methods and compositions for modulating splicing” (Skyhawk Therapeutics, Inc., priority 2019, dated 2026)

How the values were obtained:
[1] = test system: MDR1-MDCK cell monolayers; settings: dog, MDCK-MDR1, 120 min, 5 μM, pH 7.4
Method: (§1) The permeability of compounds is assessed for BBB penetration potential by use of an MDCK-MDR1 assay (Catalog EA203) performed by Absorption Systems, Exton PA.
(§2) MDR1-MDCK cell monolayers are grown to confluence on collagen-coated, microporous membranes in 12-well assay plates. The permeability assay buffer is Hanks' balanced salt solution containing 10 mM HEPES and 15 mM glucose at a pH of 7.4. The buffer in the receiver chamber also contained 1% bovine serum albumin. The dosing solution concentration is 5 μM of test article in the assay buffer. Cell monolayers are dosed on the apical side (A-to-B) or basolateral side (B-to-A) and incubated at 37° C. with 5% CO2 in a humidified incubator. Samples are taken from the donor and receiver chambers at 120 minutes. Each determination is performed in duplicate. The flux of lucifer yellow is also measured post-experimentally for each monolayer to ensure no damage is inflicted to the cell monolayers during the flux period. All samples are assayed by LC-MS/MS using electrospray ionization.
(§3) Efflux ratio (ER) is defined as Papp (B-to-A)/Papp (A-to-B).
(§4) • Column: Waters ACQUITY UPLC BEH Phenyl 30×2.1 mm, 1.7 μm • M.P. Buffer: 25 mM ammonium formate buffer, pH 3.5 • Aqueous Reservoir (A): 90% water, 10% buffer • Organic Reservoir (B): 90% acetonitrile, 10% buffer • Flow Rate: 0.7 mL/minute Gradient Program:
(§5) • Total Run Time: 1.00 minute • Autosampler: 2 μL injection volume • Wash1: water/methanol/2-propanol:1/1/1; with 0.2% formic acid • Wash2: 0.1% formic acid in water

[2] = test system: SMN protein; assay: SMN protein assay (MSD) in SMA patient fibroblasts (GM03813); type: cell-based, human; settings: SMN protein by MSD, SMA patient fibroblasts GM03813, 48 hours
Method: Compounds were tested on spinal muscular atrophy (SMA) patient fibroblasts (GM03813, Coriell) at doses ranging from 2.5 μM to 0.6 nM. 7000 cells/well were seeded in 96-well plates. Compounds were incubated for 48 hours and the cells were lysed with 100 μL of lysis buffer. 20 μL of lysate was used for SMN protein measurement by Mesoscale Discovery (MSD) assay developed by PharmOptima (Michigan). A standard curve prepared with SMN protein ranging from 1 μg/ml to 19.5 pg/ml was used in each MSD plate to calculate the absolute SMN protein amount in each sample.

[3] = test system: SMN FL; assay: Quantitative splicing assay (SMN) in SMA patient fibroblasts (GM03813); type: cell-based; settings: Homo sapiens, Fibroblast; SMA patient fibroblasts GM03813, 24 h, qPCR
Method: Spinal muscular atrophy (SMA) patient fibroblasts (GM03813, Coriell) are plated in 96-well plates at 50,000 cells/well. Immediately after plating, cells are dosed with compounds for 24 h at concentrations ranging from 2.5 μM to 0.6 nM (0.1% DMSO). Treated cells are lysed and cDNA synthesized using the Fast Advanced Cells-to-Ct kit (Thermofisher A35378) according to the manufacturer's instructions. 2 μL of each cDNA are used in qPCR reactions. The qPCR reactions are prepared in 384-well plates in 10 μL volume, using TaqMan™ Fast Advanced Master Mix (ThermoFisher; 4444965) with primers and probes shown in the table below. Reactions are run in a Quant Studio 6 qPCR instrument with default settings.

[4] = test system: MDR1; assay: in vitro; settings: dog, MDCK-MDR1, pH 7.4
Method: as §1, §2, §3, §4, §5

SMILES | MDCK-MDR1: % Recov A-B [1] | MDCK-MDR1: % Recov B-A [1] | EC50 [2] | EC50 [3] | Papp A→B at 120 min, 5 μM [4] | Papp B→A at 120 min, 5 μM [4] | efflux ratio at 120 min, 5 μM [4]
CN(c1ncc(-c2ccc(-c3cn[nH]c3)cc2O)nn1)[C@@H]1C[C@H]2CC[C@H](N2)[C@@H]1F (single isomer, unassigned) [Compound 1A] | 86% | 89% | 16 to 50 nM | 0.01 to 15 nM | 3.47 ×10⁻⁶ cm/s | 51.6 ×10⁻⁶ cm/s | 15
CN(C)C(=O)c1cc2cc(O)c(-c3cnc(N(C)[C@@H]4C[C@H]5CC[C@H](N5)[C@@H]4F)nn3)cc2o1 (single isomer, unassigned) [Compound 9A] | 92% | 100% | – | – | 2.55 ×10⁻⁶ cm/s | 61.2 ×10⁻⁶ cm/s | 24
CN(c1ncc(-c2ccc(-c3cnn(C)c3)cc2O)nn1)[C@H]1C[C@@H]2CCC[C@@H](N2)[C@H]1F (single isomer, unassigned) [Compound 2B] | 69% | 83% | 16 to 50 nM | – | 6.89 ×10⁻⁶ cm/s | 32.9 ×10⁻⁶ cm/s | 5
CN(c1ncc(-c2ccc(-c3cnn(C)c3)cc2O)nn1)[C@@H]1C[C@H]2CCC[C@H](N2)[C@@H]1F (single isomer, unassigned) [Compound 2A] | 81% | 84% | 51 to 100 nM | – | 4.48 ×10⁻⁶ cm/s | 30.3 ×10⁻⁶ cm/s | 7
CN(c1ncc(-c2ccc(-c3cn[nH]c3)cc2O)nn1)[C@H]1C[C@@H]2CC[C@@H](N2)[C@H]1F (single isomer, unassigned) [Compound 1B] | 78% | 90% | 0.01 to 15 nM | 101 to 500 nM | 2.95 ×10⁻⁶ cm/s | 33.2 ×10⁻⁶ cm/s | 11
CN(c1ncc(-c2cc3ccncc3s2)nn1)[C@H]1C[C@@H]2CC[C@@H](N2)[C@H]1F (single isomer, unassigned) [Compound 8B] | 79% | 81% | 501 to 10000 nM | – | 12.9 ×10⁻⁶ cm/s | 49.6 ×10⁻⁶ cm/s | 4
CN(C)C(=O)c1cc2cc(O)c(-c3cnc(N(C)[C@H]4C[C@@H]5CC[C@@H](N5)[C@H]4F)nn3)cc2o1 (single isomer, unassigned) [Compound 9B] | 88% | 97% | – | – | 2.4 ×10⁻⁶ cm/s | 58.5 ×10⁻⁶ cm/s | 24
CN(c1ncc(-c2cc3ccncc3s2)nn1)[C@@H]1C[C@H]2CC[C@H](N2)[C@@H]1F (single isomer, unassigned) [Compound 8A] | 87% | 93% | 501 to 10000 nM | – | 13.5 ×10⁻⁶ cm/s | 37.3 ×10⁻⁶ cm/s | 3
